Assay results: PMC10685318, “Trans-cyclosulfamidate mannose-configured cyclitol allows isoform-dependent inhibition of GH47 α-D-mannosidases through a bump–hole strategy” (Chemical Science, 2023)

Target: T1, MAN2B2 (Homo sapiens, UniProt Q9Y2E5)
T1 construct: expressed in transfected cells
T1 sequence (Q9Y2E5 24-1009): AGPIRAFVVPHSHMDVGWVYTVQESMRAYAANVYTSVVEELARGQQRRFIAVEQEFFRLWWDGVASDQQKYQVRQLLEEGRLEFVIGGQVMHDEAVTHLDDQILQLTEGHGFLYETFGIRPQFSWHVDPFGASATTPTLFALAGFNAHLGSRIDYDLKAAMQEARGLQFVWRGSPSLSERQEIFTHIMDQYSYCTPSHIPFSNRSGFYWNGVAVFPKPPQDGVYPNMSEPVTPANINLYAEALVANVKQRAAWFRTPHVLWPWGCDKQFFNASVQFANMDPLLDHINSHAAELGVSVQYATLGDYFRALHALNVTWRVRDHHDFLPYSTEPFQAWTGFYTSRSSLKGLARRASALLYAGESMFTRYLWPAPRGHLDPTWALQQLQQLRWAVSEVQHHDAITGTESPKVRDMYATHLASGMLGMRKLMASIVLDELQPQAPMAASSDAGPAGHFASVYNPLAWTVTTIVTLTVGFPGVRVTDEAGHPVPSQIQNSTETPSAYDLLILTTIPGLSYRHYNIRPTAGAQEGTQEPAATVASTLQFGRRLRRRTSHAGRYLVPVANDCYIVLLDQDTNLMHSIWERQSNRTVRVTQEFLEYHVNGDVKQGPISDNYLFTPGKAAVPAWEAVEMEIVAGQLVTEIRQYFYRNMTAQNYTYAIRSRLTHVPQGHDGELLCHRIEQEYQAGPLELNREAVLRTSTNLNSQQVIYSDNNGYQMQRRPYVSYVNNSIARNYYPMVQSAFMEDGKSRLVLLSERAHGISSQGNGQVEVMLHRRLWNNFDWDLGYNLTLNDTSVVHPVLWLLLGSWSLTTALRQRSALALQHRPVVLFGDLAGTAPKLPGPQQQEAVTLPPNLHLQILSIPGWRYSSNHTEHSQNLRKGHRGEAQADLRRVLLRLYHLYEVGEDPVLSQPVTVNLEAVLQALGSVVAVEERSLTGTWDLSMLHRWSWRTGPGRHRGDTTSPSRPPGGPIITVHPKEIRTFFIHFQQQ
Experiment: 4-MU-α-man activity assay in overexpressed cell lysates
Type: biochemical

Structure (SMILES): O=S1(=O)N[C@@H]2[C@@H](O)[C@@H](O)[C@H](O)[C@@H](CO)[C@H]2O1 [compound 6, 1,6-trans-manno-cyclosulfamidate]
- activity when the buffer was enriched with CoCl2 (CoCl2): no activity
- IC50 (Zn2+): > 1 mM
